Values joined by “and” are separate entries in the source; they are usually repeats but may differ in a detail not shown here. Identical values can stand only once. Inconclusive results and toxic doses are left out.
Test system: CD2F1 mice, L1210 leukemia ip, survival T/C
Experiment: NCI In Vivo Anticancer Drug Screen. Data for tumor model L1210 Leukemia (intraperitoneal) in CD2F1 (CDF1) mice
Details: higher = longer survival
Method in brief: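 Ratio T/C, where T is the treated-group value and C the vehicle-dosed control value, from mice implanted with a transplantable tumor.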

[1] = endpoint: mean survival time, dose: 100.0 mg/kg/injection, schedule: Q01DX009 (ip), vehicle: saline with Tween-80
[2] = endpoint: mean survival time, dose: 100.0 mg/kg/injection, schedule: Q04DX003 (ip), vehicle: saline with Tween-80
[3] = endpoint: mean survival time, dose: 200.0 mg/kg/injection, schedule: Q01DX009 (ip), vehicle: saline with Tween-80
[4] = endpoint: mean survival time, dose: 200.0 mg/kg/injection, schedule: Q04DX003 (ip), vehicle: saline with Tween-80
[5] = endpoint: mean survival time, dose: 400.0 mg/kg/injection, schedule: Q04DX003 (ip), vehicle: saline with Tween-80
[6] = endpoint: mean survival time, dose: 25.0 mg/kg/injection, schedule: Q04DX003 (ip), vehicle: saline with Tween-80
[7] = endpoint: mean survival time, dose: 50.0 mg/kg/injection, schedule: Q04DX003 (ip), vehicle: saline with Tween-80
[8] = endpoint: mean survival time, dose: 50.0 mg/kg/injection, schedule: Q01DX009 (ip), vehicle: saline with Tween-80
[9] = endpoint: mean survival time, dose: 100.0 mg/kg/injection, schedule: Q04DX002 (ip), vehicle: saline with Tween-80
[10] = endpoint: mean survival time, dose: 200.0 mg/kg/injection, schedule: Q04DX002 (ip), vehicle: saline with Tween-80
[11] = endpoint: mean survival time, dose: 400.0 mg/kg/injection, schedule: Q04DX002 (ip), vehicle: saline with Tween-80
[12] = endpoint: mean survival time, dose: 12.5 mg/kg/injection, schedule: Q01DX009 (ip), vehicle: saline with Tween-80
[13] = endpoint: mean survival time, dose: 25.0 mg/kg/injection, schedule: Q01DX009 (ip), vehicle: saline with Tween-80

CCc1nc2c(=O)n(C3OC(CO)C(O)C3O)cnc2o1 (configuration not stated)
T/C (endpoint: mean survival time, dose: 100.0 mg/kg/injection, schedule: Q01DX005 (ip), vehicle: saline): 100 % of control
T/C (endpoint: mean survival time, dose: 200.0 mg/kg/injection, schedule: Q01DX005 (ip), vehicle: saline): 101 % of control

COc1ccc(C(C)C(OC(=O)c2ccc([N+](=O)[O-])cc2)c2ccccc2)cc1 (configuration not stated)
T/C [1]: 94 % of control
T/C [2]: 88 % of control
T/C [3]: 88 % of control
T/C [4]: 97 % of control
T/C (endpoint: mean survival time, dose: 400.0 mg/kg/injection, schedule: Q01DX009 (ip), vehicle: saline with Tween-80): 103 % of control
T/C [5]: 94 % of control

CCCCCOC(=S)S.[Pt]
T/C (endpoint: mean survival time, dose: 6.25 mg/kg/injection, schedule: Q04DX003 (ip), vehicle: saline with Tween-80): 101 % of control
T/C (endpoint: mean survival time, dose: 12.5 mg/kg/injection, schedule: Q04DX003 (ip), vehicle: saline with Tween-80): 104 % of control
T/C [6]: 108 % of control
T/C [7]: 101 % of control
T/C [2]: 104 % of control

COC(c1ccccc1)C(C)O (configuration not stated)
T/C [8]: 100 % of control
T/C [1]: 100 % of control
T/C [3]: 95 % of control

c1ccc(-c2nnnn2-c2ccccc2)cc1
T/C (endpoint: mean survival time, dose: 100.0 mg/kg/injection, schedule: Q04DX003 (ip), vehicle: saline): 101 % of control
T/C (endpoint: mean survival time, dose: 200.0 mg/kg/injection, schedule: Q04DX003 (ip), vehicle: saline): 98 % of control
T/C (endpoint: mean survival time, dose: 400.0 mg/kg/injection, schedule: Q04DX003 (ip), vehicle: saline): 104 % of control

c1ccc(CN2CCc3cc4c(cc3C2)OCO4)cc1
T/C (endpoint: mean survival time, dose: 37.5 mg/kg/injection, schedule: Q01DX001 (ip), vehicle: saline): 102 % of control
T/C (endpoint: mean survival time, dose: 75.0 mg/kg/injection, schedule: Q01DX001 (ip), vehicle: saline): 102 % of control
T/C (endpoint: mean survival time, dose: 150.0 mg/kg/injection, schedule: Q01DX001 (ip), vehicle: saline): 90 % of control

OCC1OC(c2ccccc2)OC(CO)C(O)C1O (configuration not stated)
T/C [8]: 96 % of control
T/C [1]: 98 % of control
T/C [3]: 94 % of control

Nc1nc2c(ncn2-c2cccc(NC(=O)Nc3ccc(S(=O)(=O)F)cc3)c2)c(=O)[nH]1 (tested in a mixture with another compound)
T/C [9]: 94 % of control
T/C [10]: 105 % of control
T/C [11]: 86 % of control

Cc1cc(Cl)ccc1N=Cc1ccc2c(c1)OCO2
T/C (endpoint: mean survival time, dose: 100.0 mg/kg/injection, schedule: Q01DX001 (ip), vehicle: Klucel (hydroxypropylcellulose) (HPC)): 95 % of control
T/C (endpoint: mean survival time, dose: 100.0 mg/kg/injection, schedule: Q01DX009 (ip), vehicle: Klucel (hydroxypropylcellulose) (HPC)): 108 % of control
T/C (endpoint: mean survival time, dose: 200.0 mg/kg/injection, schedule: Q01DX001 (ip), vehicle: Klucel (hydroxypropylcellulose) (HPC)): 102 % of control
T/C (endpoint: mean survival time, dose: 200.0 mg/kg/injection, schedule: Q01DX009 (ip), vehicle: Klucel (hydroxypropylcellulose) (HPC)): 105 % of control
T/C (endpoint: mean survival time, dose: 400.0 mg/kg/injection, schedule: Q01DX001 (ip), vehicle: Klucel (hydroxypropylcellulose) (HPC)): 95 % of control
T/C (endpoint: mean survival time, dose: 400.0 mg/kg/injection, schedule: Q01DX009 (ip), vehicle: Klucel (hydroxypropylcellulose) (HPC)): 98 % of control

CCOC(=O)Nc1ccc(C(=O)O)c(O)c1
T/C [2]: 96 % of control
T/C [4]: 96 % of control
T/C [5]: 100 % of control

O=C([S-])N1CCCCC1.O=C([S-])N1CCCCC1.[Ni+2]
T/C [12]: 96 % of control
T/C (endpoint: mean survival time, dose: 12.5 mg/kg/injection, schedule: Q04DX003 (ip), vehicle: saline sonified): 100 % of control
T/C [13]: 93 % of control
T/C (endpoint: mean survival time, dose: 25.0 mg/kg/injection, schedule: Q04DX003 (ip), vehicle: saline sonified): 113 % of control
T/C [8]: 106 % of control
T/C (endpoint: mean survival time, dose: 50.0 mg/kg/injection, schedule: Q04DX003 (ip), vehicle: saline sonified): 92 % of control

OC(Cc1ccccn1)c1ccccc1 (configuration not stated)
T/C [2]: 95 % of control
T/C [4]: 101 % of control
T/C [5]: 98 % of control

CCC1(O)C(=O)OCc2c1cc1n(c2=O)Cc2cc3ccc(/C=N/N=C(N)N)cc3nc2-1 (configuration not stated)
T/C (endpoint: median survival time, dose: 10.0 mg/kg/injection, schedule: Q04DX002 (ip), vehicle: saline with Tween-80): 106 % of control
T/C (endpoint: median survival time, dose: 20.0 mg/kg/injection, schedule: Q04DX002 (ip), vehicle: saline with Tween-80): 113 % of control
T/C (endpoint: median survival time, dose: 40.0 mg/kg/injection, schedule: Q04DX002 (ip), vehicle: saline with Tween-80): 102 % of control
T/C (endpoint: median survival time, dose: 80.0 mg/kg/injection, schedule: Q04DX002 (ip), vehicle: saline with Tween-80): 102 % of control

COc1cccc(CN2CCNCC2)c1
T/C (endpoint: mean survival time, dose: 25.0 mg/kg/injection, schedule: Q01DX005 (ip), vehicle: water): 102 % of control
T/C (endpoint: mean survival time, dose: 50.0 mg/kg/injection, schedule: Q01DX005 (ip), vehicle: water): 102 % of control
T/C (endpoint: mean survival time, dose: 100.0 mg/kg/injection, schedule: Q01DX005 (ip), vehicle: water): 102 % of control

CSc1sc2ccccc2[n+]1C
T/C (endpoint: mean survival time, dose: 25.0 mg/kg/injection, schedule: Q01DX009 (ip), vehicle: saline): 100 % of control
T/C (endpoint: mean survival time, dose: 50.0 mg/kg/injection, schedule: Q01DX009 (ip), vehicle: saline): 110 % of control

O=C1C(=O)c2ccccc2C(O)=C1C(C1=C(O)c2ccccc2C(=O)C1=O)c1ccccc1Br
T/C (endpoint: mean survival time, dose: 100.0 mg/kg/injection, schedule: Q01DX001 (ip), vehicle: saline sonified): 98 % of control
T/C [1]: 86 % of control
T/C (endpoint: mean survival time, dose: 200.0 mg/kg/injection, schedule: Q01DX001 (ip), vehicle: saline sonified): 102 % of control
T/C (endpoint: mean survival time, dose: 400.0 mg/kg/injection, schedule: Q01DX001 (ip), vehicle: saline sonified): 91 % of control

COc1ccc(NC(=S)NN)cc1
T/C [6]: 110 % of control
T/C [7]: 91 % of control
T/C [2]: 87 % of control and 96 % of control
T/C [5]: 107 % of control

CC1(C)N=C(N)N=C(N)N1c1ccc(OCCNS(=O)(=O)c2cccc(S(=O)(=O)F)c2)c(Cl)c1
T/C [12]: 108 % of control
T/C [13]: 110 % of control
T/C [8]: 117 % of control
T/C (endpoint: mean survival time, dose: 100.0 mg/kg/injection, schedule: Q01DX001 (ip), vehicle: saline with Tween-80): 97 % of control
T/C [1]: 164 % of control
T/C [9]: 97 % of control
T/C (endpoint: mean survival time, dose: 200.0 mg/kg/injection, schedule: Q01DX001 (ip), vehicle: saline with Tween-80): 107 % of control
T/C [3]: 94 % of control
T/C [10]: 108 % of control
T/C (endpoint: mean survival time, dose: 400.0 mg/kg/injection, schedule: Q01DX001 (ip), vehicle: saline with Tween-80): 111 % of control
T/C [11]: 101 % of control

O/N=C/c1ccc(O)cc1O
T/C (endpoint: mean survival time, dose: 100.0 mg/kg/injection, schedule: Q01DX001 (ip), vehicle: saline): 100 % of control
T/C (endpoint: mean survival time, dose: 200.0 mg/kg/injection, schedule: Q01DX001 (ip), vehicle: saline): 102 % of control

COc1ccc(NC(=S)N(C)C)cc1
T/C [2]: 94 % of control
T/C [4]: 90 % of control
T/C [5]: 92 % of control

O=C(Nc1ccccc1)c1ccccc1C(O)(c1ccccc1)c1ccc(Cl)cc1 (configuration not stated)
T/C [2]: 95 % of control
T/C [4]: 95 % of control
T/C [5]: 97 % of control

CCOC(=O)c1cc(-c2ccc3ccccc3n2)c(O)c2cc3ccccc3nc12
T/C [2]: 93 % of control
T/C [4]: 87 % of control
T/C [5]: 90 % of control

CCCCOC(=O)CCC(NC(=O)c1ccc(N(C)Cc2cnc3nc(N)nc(N)c3n2)cc1)C(=O)OCCCC (configuration not stated)
T/C (endpoint: mean survival time, dose: 0.09 mg/kg/injection, schedule: Q01DX009 (ip), vehicle: distilled water + Tween-80): 108 % of control
T/C (endpoint: mean survival time, dose: 0.19 mg/kg/injection, schedule: Q01DX009 (ip), vehicle: distilled water + Tween-80): 113 % of control and 91 % of control
T/C (endpoint: mean survival time, dose: 0.75 mg/kg/injection, schedule: Q01DX009 (ip), vehicle: distilled water + Tween-80): 108 % of control
T/C (endpoint: mean survival time, dose: 1.5 mg/kg/injection, schedule: Q01DX009 (ip), vehicle: distilled water + Tween-80): 89 % of control

CCOC(=O)c1cc(=O)c2cc(S(=O)(=O)F)ccc2[nH]1
T/C (endpoint: mean survival time, dose: 100.0 mg/kg/injection, schedule: Q04DX003 (ip), vehicle: Klucel (hydroxypropylcellulose) (HPC)): 103 % of control
T/C (endpoint: mean survival time, dose: 200.0 mg/kg/injection, schedule: Q04DX003 (ip), vehicle: Klucel (hydroxypropylcellulose) (HPC)): 103 % of control
T/C (endpoint: mean survival time, dose: 400.0 mg/kg/injection, schedule: Q04DX003 (ip), vehicle: Klucel (hydroxypropylcellulose) (HPC)): 100 % of control

CCCCCCCCCCCCCCCc1cc(=O)n(-c2ccc(C(=O)OCC)cc2)n1C
T/C [1]: 92 % of control
T/C [2]: 97 % of control
T/C [3]: 86 % of control
T/C [4]: 88 % of control
T/C [5]: 100 % of control

Source: PubChem BioAssay AID256 (DTP/NCI, 2004)
